In US6221906A, “Platinum complex conjugated to cyclotriphosphazene, its preparation, and anticancer agent comprising the same” (Korea Institute of Science and Technology, priority 1999, dated 2001):

Assays:
leukemia L1210 cells = test: anticancer activity test against mouse leukemia L1210 cells implanted in BDF1 mice; assay type: in vivo; conditions: intra-peritoneal, days 1, 5 and 9; for Number of survival after 60 days: of 8 mice
[1] = literature value; cited from earlier work
ICR mouse = test: pilot acute toxicity test, single tail vein injection (LD50); assay type: in vivo; conditions: for Death rate: 2 animals; for deaths on day 0 after administration: of 2 animals
Experimental: A pilot acute toxicity test was performed for the compound (KI-60606) described in Example 8 of the present invention by intravenous injection.
(2) carrier: physiological saline for injection
(1) animal model: ICR mouse
(2) age of the animal: 4 weeks old when delivered, 5 weeks old when the drug was administered
(3) sex and number of animals: 12 males and 12 females
(4) breeding condition: temperature: 23 3C. relative humidity: 50 10% light intensity: 150-300 Lux
3. Number and method of administration: single tail vein injection
5. Observation categories: general symptoms, symptoms of dead animals, body weight up to seventh day after administration, autopsy finding.

Hartley guinea pigs = test: guinea pig anaphylaxis test; assay type: in vivo
Experimental: […] The systemic symptoms were observed 30 minutes after the injection. […] However, only 2 animals administered with oligomeric platinum complex of the present invention (KI 60606: The compound in Example 8 of the present invention) had severe symptoms but none died.

[2] = male or female mice, 500 mg/kg or more
[3] = antigen 1 mg/kg, induced antigen 5 mg/kg, 4 animals
[4] = antigen 5 mg/kg, induced antigen 5 mg/kg, 4 animals

O=C1[O][Pt-2]2([NH2+]C3CCCCC3[NH2+]2)[O]C(=O)C1NP1(NC2C(=O)[O][Pt-2]3([NH2+]C4CCCCC4[NH2+]3)[O]C2=O)=NP(NC2C(=O)[O][Pt-2]3([NH2+]C4CCCCC4[NH2+]3)[O]C2=O)(NC2C(=O)[O][Pt-2]3([NH2+]C4CCCCC4[NH2+]3)[O]C2=O)=NP(NC2C(=O)[O][Pt-2]3([NH2+]C4CCCCC4[NH2+]3)[O]C2=O)(NC2C(=O)[O][Pt-2]3([NH2+]C4CCCCC4[NH2+]3)[O]C2=O)=N1 (racemic) [Example 16, [NP(Am·Pt(dach)2]3]
Increased life span (ILS) (leukemia L1210 cells; 30 mg/kg): 222.1%
Increased life span (ILS) (leukemia L1210 cells; 60 mg/kg): Toxic

N.N.O=C([O-])C1(C(=O)[O-])CCC1.[Pt+2] [Carboplatin, cis-(NH3)2 Pt(CBDCA), reference compound]
LD50 [1]: 180 mg/kg
Increased life span (ILS) (leukemia L1210 cells; 40 mg/kg): 80%

N.N.[Cl][Pt][Cl] [Cisplatin, cis-(NH3)2 PtCl2, reference compound]
Increased life span (ILS) (leukemia L1210 cells; 4 mg/kg): 60%

O=C1CC(NP2(NC3CC(=O)[O][Pt-2]4([NH2+]C5CCCCC5[NH2+]4)[O]C3=O)=NP(NC3CC(=O)[O][Pt-2]4([NH2+]C5CCCCC5[NH2+]4)[O]C3=O)(NC3CC(=O)[O][Pt-2]4([NH2+]C5CCCCC5[NH2+]4)[O]C3=O)=NP(NC3CC(=O)[O][Pt-2]4([NH2+]C5CCCCC5[NH2+]4)[O]C3=O)(NC3CC(=O)[O][Pt-2]4([NH2+]C5CCCCC5[NH2+]4)[O]C3=O)=N2)C(=O)[O][Pt-2]2([NH2+]C3CCCCC3[NH2+]2)[O]1 [Example 1, [NP(L-Asp·Pt(dach))2]3]
Increased life span (ILS) (leukemia L1210 cells; 40 mg/kg): > 243.8%
Number of survival after 60 days (leukemia L1210 cells; 40 mg/kg): 1/8
Increased life span (ILS) (leukemia L1210 cells; 60 mg/kg): > 448.8%
Number of survival after 60 days (leukemia L1210 cells; 60 mg/kg): 4/8

CC1(C)C[NH2+][Pt-2]2([NH2+]C1)[O]C(=O)C[C@H](NP1(N[C@H]3CC(=O)[O][Pt-2]4([NH2+]CC(C)(C)C[NH2+]4)[O]C3=O)=NP(N[C@H]3CC(=O)[O][Pt-2]4([NH2+]CC(C)(C)C[NH2+]4)[O]C3=O)(N[C@H]3CC(=O)[O][Pt-2]4([NH2+]CC(C)(C)C[NH2+]4)[O]C3=O)=NP(N[C@H]3CC(=O)[O][Pt-2]4([NH2+]CC(C)(C)C[NH2+]4)[O]C3=O)(N[C@H]3CC(=O)[O][Pt-2]4([NH2+]CC(C)(C)C[NH2+]4)[O]C3=O)=N1)C(=O)[O]2 [Example 2, [NP(L-Asp·Pt(dmpda))2]3]
Increased life span (ILS) (leukemia L1210 cells; 30 mg/kg): 165.0%
Increased life span (ILS) (leukemia L1210 cells; 60 mg/kg): 147.9%

O=C1C[C@H](NP2(N[C@H]3CC(=O)[O][Pt-2]4([NH2+]CC[NH2+]4)[O]C3=O)=NP(N[C@H]3CC(=O)[O][Pt-2]4([NH2+]CC[NH2+]4)[O]C3=O)(N[C@H]3CC(=O)[O][Pt-2]4([NH2+]CC[NH2+]4)[O]C3=O)=NP(N[C@H]3CC(=O)[O][Pt-2]4([NH2+]CC[NH2+]4)[O]C3=O)(N[C@H]3CC(=O)[O][Pt-2]4([NH2+]CC[NH2+]4)[O]C3=O)=N2)C(=O)[O][Pt-2]2([NH2+]CC[NH2+]2)[O]1 [Example 4, [NP(L-Asp·Pt(en))2]3]
Increased life span (ILS) (leukemia L1210 cells; 30 mg/kg): 250.9%
Increased life span (ILS) (leukemia L1210 cells; 60 mg/kg): Toxic

O=C1CCC(NP2(NC3CCC(=O)[O][Pt-2]4([NH2+]C5CCCCC5[NH2+]4)[O]C3=O)=NP(NC3CCC(=O)[O][Pt-2]4([NH2+]C5CCCCC5[NH2+]4)[O]C3=O)(NC3CCC(=O)[O][Pt-2]4([NH2+]C5CCCCC5[NH2+]4)[O]C3=O)=NP(NC3CCC(=O)[O][Pt-2]4([NH2+]C5CCCCC5[NH2+]4)[O]C3=O)(NC3CCC(=O)[O][Pt-2]4([NH2+]C5CCCCC5[NH2+]4)[O]C3=O)=N2)C(=O)[O][Pt-2]2([NH2+]C3CCCCC3[NH2+]2)[O]1 [Example 8, [NP(L-Glu·Pt(dach))2]3]
Main symptoms (ICR mouse; 62.5-2000 mg/kg, single intravenous injection, ICR mice): prone positioning, gait disturbance, dyspnea and decrease in body weight
General symptoms of dead mice (ICR mouse; 125 or 250 mg/kg): prone positioning and drooling
Estimated LD50 value (ICR mouse; female ICR mice, single intravenous injection): 125 to 250 mg/kg
Death rate (ICR mouse; female, 62.5 mg/kg): 0%
number of mice with decrease in body weight (ICR mouse; female, 125 mg/kg): 2
Death rate (ICR mouse; female, 125 mg/kg): 0%
Death rate (ICR mouse; female, 250 mg/kg): 100%
deaths on day 0 after administration (ICR mouse; female, 250 mg/kg): 2
Death rate (ICR mouse; female, 500 mg/kg): 100%
deaths on day 0 after administration (ICR mouse; female, 500 mg/kg): 2
Death rate (ICR mouse; female, 1000 mg/kg): 100%
deaths on day 0 after administration (ICR mouse; female, 1000 mg/kg): 2
Death rate (ICR mouse; female, 2000 mg/kg): 100%
deaths on day 0 after administration (ICR mouse; female, 2000 mg/kg): 2
Estimated LD50 value (ICR mouse; male ICR mice, single intravenous injection): 125 mg/kg
General symptoms (ICR mouse; [2]): prone positioning, gait disturbance and dyspnea
time of death after injection (ICR mouse; [2]): 10 to 20 s
number of mice with decrease in body weight (ICR mouse; male, 62.5 mg/kg): 1
Death rate (ICR mouse; male, 62.5 mg/kg): 0%
Death rate (ICR mouse; male, 125 mg/kg): 50%
deaths on day 0 after administration (ICR mouse; male, 125 mg/kg): 1
Death rate (ICR mouse; male, 250 mg/kg): 100%
deaths on day 0 after administration (ICR mouse; male, 250 mg/kg): 2
Death rate (ICR mouse; male, 500 mg/kg): 100%
deaths on day 0 after administration (ICR mouse; male, 500 mg/kg): 2
Death rate (ICR mouse; male, 1000 mg/kg): 100%
deaths on day 0 after administration (ICR mouse; male, 1000 mg/kg): 2
Death rate (ICR mouse; male, 2000 mg/kg): 100%
deaths on day 0 after administration (ICR mouse; male, 2000 mg/kg): 2
autopsy finding (ICR mouse; mice that died immediately and mice that survived): No particular autopsy finding was observed
General symptoms of live animals (ICR mouse; one day after injection): did not have any particular symptoms
death in anaphylaxis test (Hartley guinea pigs; all dose groups): none died
number of animals with severe symptoms (Hartley guinea pigs; all dose groups): 2
number of animals with symptom [++] (severe) (Hartley guinea pigs; [3]): 2
number of animals with symptom [+] (moderate) (Hartley guinea pigs; [3]): 1
number of animals with symptom [±] (mild) (Hartley guinea pigs; [3]): 1
number of animals with symptom [+] (moderate) (Hartley guinea pigs; [4]): 1
number of animals with symptom [-] (asymptomatic) (Hartley guinea pigs; [4]): 3
antigenicity compared with physiological saline (Hartley guinea pigs; compared with physiological saline solution): antigenicity was even less
Increased life span (ILS) (leukemia L1210 cells; 60 mg/kg): > 400%
Number of survival after 60 days (leukemia L1210 cells; 60 mg/kg): 3/8
Increased life span (ILS) (leukemia L1210 cells; 80 mg/kg): > 402.8%
Number of survival after 60 days (leukemia L1210 cells; 80 mg/kg): 3/8

O=C1CC[C@H](NP2(N[C@H]3CCC(=O)[O][Pt-2]4([NH2+]CC[NH2+]4)[O]C3=O)=NP(N[C@H]3CCC(=O)[O][Pt-2]4([NH2+]CC[NH2+]4)[O]C3=O)(N[C@H]3CCC(=O)[O][Pt-2]4([NH2+]CC[NH2+]4)[O]C3=O)=NP(N[C@H]3CCC(=O)[O][Pt-2]4([NH2+]CC[NH2+]4)[O]C3=O)(N[C@H]3CCC(=O)[O][Pt-2]4([NH2+]CC[NH2+]4)[O]C3=O)=N2)C(=O)[O][Pt-2]2([NH2+]CC[NH2+]2)[O]1 [Example 13, [NP(L-Glu·Pt(en))2]3]
Increased life span (ILS) (leukemia L1210 cells; 30 mg/kg): 277%
Increased life span (ILS) (leukemia L1210 cells; 60 mg/kg): Toxic

O=C1[O][Pt-2]2([NH2+]CC[NH2+]2)[O]C(=O)C1NP1(NC2C(=O)[O][Pt-2]3([NH2+]CC[NH2+]3)[O]C2=O)=NP(NC2C(=O)[O][Pt-2]3([NH2+]CC[NH2+]3)[O]C2=O)(NC2C(=O)[O][Pt-2]3([NH2+]CC[NH2+]3)[O]C2=O)=NP(NC2C(=O)[O][Pt-2]3([NH2+]CC[NH2+]3)[O]C2=O)(NC2C(=O)[O][Pt-2]3([NH2+]CC[NH2+]3)[O]C2=O)=N1 (stereo not shown) [Example 18, [NP(Am·Pt(en))2]3]
Increased life span (ILS) (leukemia L1210 cells; 30 mg/kg): > 400%
Number of survival after 60 days (leukemia L1210 cells; 30 mg/kg): 3/8
Increased life span (ILS) (leukemia L1210 cells; 60 mg/kg): Toxic

[NP(OH)(Glu.Pt(dach)]n [KI-30606, reference compound]
death due to anaphylaxis (Hartley guinea pigs; all animals, 30 minutes after injection): died due to anaphylaxis
number of animals with symptom [+++] (death) (Hartley guinea pigs; antigen 1 mg/kg, induced antigen 5 mg/kg, 5 animals): 5
number of animals with symptom [+++] (death) (Hartley guinea pigs; [4]): 4
